Measured values published in patent US20240392240A1, “PIG EMBRYO-DERIVED PLURIPOTENT STEM CELLS AND USE THEREOF” (CHINA AGRICULTURAL UNIVERSITY, priority 2021, published 2024).
“Also recorded” adds a separate entry of the source. Values belong to the molecule of their own block, whether it stands above or below them.

Assays:
Type in all cases: cell-based, pig
pgEpiSCs [1] = assay: qRT-PCR of marker gene mRNA in pgEpiSCs in modified 3i/LAF medium
Experimental: Total RNA from pgEpiSCs was extracted using the RNAprep Pure Cell/Bacteria Kit (TIANGEN, DP430), and then reverse transcribed to cDNA using 5×All-in-One RT Master Mix (Abm, G490). PCR was performed on a LightCycler480 II Real Time System (Roche) using 2×RealStar Green Power Mixture (GenStar, A311-05). The data were analyzed using the comparative CT (2^−ΔΔCT) method. ΔCT was calculated using EF1A as an internal control. All experiments were performed in three biological replicates. Primers used for quantitative real-time PCR are listed in the Resource table.
(§1) According to the 3i/LAF medium and its culture method described in Example 1, the inventors tested the requirement for each factor in the 3i/LAF medium for long-term in vitro maintenance of pgEpiSCs on the basis of removing the small molecule inhibitors and cytokines from the culture medium one by one without altering the other conditions.

pgEpiSCs [2] = assay: Immunostaining of POU5F1 and EOMES in pgEpiSCs; conditions: factor removed from 3i/LAF medium; FIG. 2-1C
Experimental: Cells were washed with DPBS (Gibco, C14190500BT) and fixed with 4% paraformaldehyde for 30 min at room temperature, then washed with DPBS again, permeabilized in 0.1% Triton X-100 for 20 min and blocked with 3% BSA for 1 hour. Cells were incubated with primary antibody diluted with 3% BSA at 4° C. overnight. Cells were then washed three times for 3 min each with wash buffer (DPBS containing 0.1% Triton X-100 and 0.1% Tween 20). The secondary antibody was diluted, and incubated with wash buffer for 1 hour at room temperature, then washed three times for 5 min each with wash buffer, and then the nuclei were stained with DAPI (Roche Life Science, 10236276001) for 3 min.
as §1

pgEpiSCs [3] = assay: Clone morphology and alkaline phosphatase (AP) staining of pgEpiSCs in modified 3i/LAF medium; conditions: for clone morphology and AP staining signal after removal of the factor: factor removed from 3i/LAF medium, other conditions unchanged, FIG. 2-1A
Experimental: The alkaline phosphatase staining of pgEpiSC was based on the Alkaline Phosphatase Assay Kit (Millipore, SCR004). Specific experimental steps followed the instructions of the kit.
Epiblast from pig E8-E10 embryos was obtained, and the epiblast was treated with TrypLE™ Express followed by repeatedly blowing to disperse into small cell masses. The cell masses were then inoculated into 12-well cell culture dishes (density of the feeder layer cells were approximately 2×10^5 cells/well) supplemented with 750 μL of 3i/LAF medium (Note: 10 μM Y27632 was added into the 3i/LAF medium), wherein the feeder layer cells were mouse embryonic fibroblasts treated with mitomycin C (Selleckchem, S8146) and cultured in an incubator at 37° C., 100% humidity, and 5% CO2. After 12 hrs, another 750 μL of 3i/LAF medium was added without changing the medium, and after 24 hrs, the medium was replaced with fresh 3i/LAF medium (containing 2 μM Y27632). After that, the medium was replaced with fresh medium every 12 hrs, and after the clones grew for 2-3 days, the morphology of the clones was observed and the clones were digested for passaging.
as §1
Experimental method: pgEpiSCs were cultured with the adjusted medium, after which AP staining was performed on the cultured pgEpiSCs of P1 (indicating the pgEpiSCs after 1 passage in the adjusted medium) or P3 (indicating the pgEpiSCs after 3 passages in the adjusted medium). The specific steps of AP staining are described in the section of Experimental Methods described previously.

pgEpiSCs [4] = assay: Cell proliferation, survival and passaging of pgEpiSCs; conditions: for proliferation and passaging of pgEpiSCs: FGF2 removed and ERK/MEK inhibitor PD0325901 added, FIG. 2-1I to 2-1K
Experimental: pgEpiSCs were cultured in a 12-well plate. Cell samples were inoculated at a density of 2× 10^4 cells per well in triplicate. The number of cells was counted every 12 hours. For each time point, cells were digested and counted using a Luna™ Automated Cell Counter, and the results of three counts were averaged and plotted. The cell doubling time was calculated as follows: doubling time (DT)=24×[lg2/(lgNt−lgN0)], where 24 is the cell culture time (hour); Nt is the number of cells cultured for 48 hours; and No is the number of cells recorded at 24 hours.
as §1

phosphorylated STAT3 = assay: Western blot of phosphorylated STAT3 in pgEpiSCs; conditions: with or without LIF; FIG. 2-1M
Experimental: Total proteins were extracted from cells by cell lysis buffer (Beyotime Biotechnology, P0013), and nuclear and cytoplasmic proteins were extracted using the nucleus and cytoplasmic protein extraction kit (Beyotime Biotechnology, P0027) supplemented with protease and phosphatase inhibitor cocktail (Beyotime Biotechnology, P1050) to extract nuclear and cytoplasmic proteins. The concentration of extracted proteins was measured using the Bradford Protein Assay Kit (Bio-red, 5000201). An equal amount of proteins (15 μg) was separated by SDS-PAGE gel electrophoresis, which were transferred from the gel to Immobilon-P transfer membrane (Merck Millipore; pore size: 0.45 μm; IPVH00010). The blots were blocked in 5% nonfat powdered milk (Sangon Biotech, A600669-0250) in TBST (20 mM Tris, pH 7.5; 150 mM NaCl; 0.1% Tween 20) at room temperature for 1 hour and then incubated with primary antibodies diluted in 5% nonfat powdered milk in TBST overnight at 4° C. The next day, the blots were rinsed three times with TBST for 5 minutes each time, then incubated together with HRP-coupled secondary antibody diluted in 5% nonfat powdered milk in TBST for 1 hour at room temperature. The blots were developed with SuperSignal West Dura Extended Duration Substrate (Thermo Fisher Scientific, 34075), and the intensity of the bands of the target proteins was analyzed using CLINX chemiluminescence software. […]

[5] = high concentration of CHIR99021 in the medium, FIG. 2-1E, 2-1F, 2-2C, 2-2D
[6] = factor removed from 3i/LAF medium, FIG. 2-1B
[7] = inhibitor added into the culture medium, FIG. 2-1H
[8] = only IWR-1-endo replaced with XAV939, FIG. 2-2B
[9] = only IWR-1-endo replaced with XAV939, FIG. 2-2A

Molecule: Cc1c[nH]c(-c2cnc(NCCNc3ccc(C#N)cn3)nc2-c2ccc(Cl)cc2Cl)n1 [CHIR99021]
- expression of cell proliferation-related genes (LIN28A, C-MYC, ETV4, ETV5) after removal of the factor (pgEpiSCs [1]; factor removed from 3i/LAF medium, FIG. 2-1D): down-regulated
- expression of GATA6 at high concentration (pgEpiSCs [1]; [5]): significant up-regulation; also recorded: up-regulated
- expression of pluripotency marker POU5F1 at high concentration (pgEpiSCs [1]; [5]): down-regulation; also recorded: decreased

Molecule: O=C(Nc1cccc2cccnc12)c1ccc(N2C(=O)[C@@H]3[C@H](C2=O)[C@@H]2C=C[C@H]3C2)cc1 [IWR-1-endo]
- mesodermal and endodermal progenitor marker EOMES immunostaining after removal of the factor (pgEpiSCs [2]): promoting the expression
- pluripotency factor POU5F1 immunostaining after removal of the factor (pgEpiSCs [2]): reduced accumulation or heterogeneity
- expression of core pluripotency factors (NANOG, POU5F1, SOX2, REX1) after removal of the factor (pgEpiSCs [1]; [6]): significant down-regulation
- expression of gastrulation marker genes BMP2, BMP4, EOMES and T after removal of the factor (pgEpiSCs [1]; [6]): up-regulation
- clone morphology and AP staining signal after removal of the factor (pgEpiSCs [3]; 2-1L): poorly defined boundaries of the pgEpiSC clone

Molecule: O=C(NOC[C@H](O)CO)c1ccc(F)c(F)c1Nc1ccc(I)cc1F [PD0325901]
- proliferation and passaging of pgEpiSCs (pgEpiSCs [4]): could not proliferate or be passaged normally

- clone morphology after addition of the inhibitor (pgEpiSCs [3]; inhibitor added into the culture medium, FIG. 2-1G, 2-1L): irregular clone morphology
Molecule: NC(=O)c1ccc(-c2nc(-c3ccc4c(c3)OCO4)c(-c3ccccn3)[nH]2)cc1 [SB431542]
- level of NANOG after addition of the inhibitor (pgEpiSCs [1]; inhibitor added into the culture medium, FIG. 2-1G, 2-1H): dramatic decrease
- BMP4 and BMP downstream transcription factors (ID2, ID3) after addition of the inhibitor (pgEpiSCs [1]; [7]): significant increase
- pluripotency markers (POU5F1, REX1) after addition of the inhibitor (pgEpiSCs [1]; [7]): significant decrease

Molecule: COc1ccc(N(C(=O)Oc2c(C)cccc2C)c2ccnc(Nc3ccc(N4CCN(C)CC4)cc3)n2)c(OC)c1 [WH-4-023]
- mesodermal and endodermal progenitor marker EOMES immunostaining after removal of the factor (pgEpiSCs [2]): promoting the expression
- pluripotency factor POU5F1 immunostaining after removal of the factor (pgEpiSCs [2]): reduced accumulation or heterogeneity
- expression of gastrulation marker genes BMP2, BMP4, EOMES and T after removal of the factor (pgEpiSCs [1]; [6]): up-regulation

Molecule: Oc1nc(-c2ccc(C(F)(F)F)cc2)nc2c1CSCC2 [XAV939]
- expression of core pluripotency factor OCT4 (POU5F1) after IWR-1-endo replacement (pgEpiSCs [1]; [8]): down-regulated
- expression of pluripotency factors REX1, STELLA and ESRRB after IWR-1-endo replacement (pgEpiSCs [1]; [8]): down-regulated
- passaging at which AP positivity was lost (figure legend) (pgEpiSCs [3]; IWR-1-endo replacement with XAV939, FIG. 2-2A): around 8 passages of passaging
- maintenance of pluripotency after IWR-1-endo replacement (pgEpiSCs [3]; [9]): unable to maintain pluripotency for a long period of time
- passaging at which AP positivity was lost (pgEpiSCs [3]; [9]): about 8 generations of passaging

Molecule: Activin A: TGF-β superfamily member, cytokine of the 3i/LAF medium (Peprotech, 120-14E)
- level of pluripotency marker NANOG after removal of the factor (pgEpiSCs [1]; factor removed from 3i/LAF medium, FIG. 2-1G, 2-1H): decrease

Molecule: FGF2: fibroblast growth factor, cytokine of the 3i/LAF medium (Peprotech, 100-18B)
- proliferation and passaging of pgEpiSCs (pgEpiSCs [4]): could not proliferate or be passaged normally
- proliferative capacity of pgEpiSCs on decreasing the concentration (pgEpiSCs [4]; decreasing FGF2 concentration, all other conditions unchanged, FIG. 2-1K): significantly reduced
- cell proliferation at high concentrations (pgEpiSCs [4]; high concentrations of FGF2, FIG. 2-1K): faster cell proliferation

- clone morphology and AP staining signal after removal of the factor (pgEpiSCs [3]; 2-1L): not necessary to maintain the morphology
Molecule: LIF: cytokine of the 3i/LAF medium (PeproTech, 300-05)
- detection of phosphorylated STAT3 (phosphorylated STAT3): could be detected only in the presence of LIF
